From patent publication US20050080113A1, “Medicinal compositions” (priority 2001, published 2005) come the findings set out here.

One series has as its target T1, human p38 MAP kinase (Homo sapiens, UniProt Q16539).
T1 construct: made in house; host or cells: Sf-21 insect cells, baculovirus (BAC-HP38 co-infected with BAC-caMKK3)
The series is described as follows: Measurement of the enzyme inhibitory activity of active form p38 MAP kinase, 32P uptake into Myelin Basic Protein (Reference Example C 1). In kind it is biochemical. Conditions: Myelin Basic Protein substrate, 30° C., 60 minutes, read-out: IC50 (concentration necessary for inhibiting uptake of 32P into an acid insoluble fraction by 50%). On the procedure:
The genetic manipulations described below were according to a method described in the book (Maniatis et al., Molecular Cloning, Cold Spring Harbor Laboratory, 1989) or methods described in the protocols attached to the reagents.
(1) Cloning of Human p38 MAP Kinase Gene and Preparation of Recombinant Baculovirus
Cloning of human p38 MAP kinase gene was performed by a PCR method using a primer set P38 U: 5′-[…] 3′ [SEQ ID NO:1] and PAG-L: 5′-[…]-3′ [SEQ ID NO:2] made by the use of kidney cDNA (Toyobo, QUICK-Clone cDNA) as a template and referring to the base sequence of p38 MAP kinase gene reported by Han et al. (Science 265 (5173), 808 811 (1994)).
A PCR reaction was performed by a Hot Start method using AmpliWax PCR Gem 100 (Takara Shuzo). As the lower mixed solution, 2 μL 10×LA PCR Buffer, 3 μL 2.5 mM dNTP solution, each 2.5 μL of 12.5 μM primer solutions, and 10 μL sterile distilled water were mixed. As the upper mixed solution, 1 μL human cardiac cDNA (1 ng/mL) as a template, 3 μL 10×LA PCR Buffer, 1 μL 2.5 mM dNTP solution, 0.5 μL TaKaRa LA Taq DNA polymerase (Takara Shuzo), and 24.5 μL sterile distilled water were mixed. One AmpliWax PCR Gem 100 (Takara Shuzo) was added to the prepared lower mixed solution and the mixture was treated at 70° C. for 5 min and for 5 min in an ice and, thereafter, the upper mixed solution was added to prepare a reaction solution for PCR. […]

T1 sequence (Q16539 whole entry): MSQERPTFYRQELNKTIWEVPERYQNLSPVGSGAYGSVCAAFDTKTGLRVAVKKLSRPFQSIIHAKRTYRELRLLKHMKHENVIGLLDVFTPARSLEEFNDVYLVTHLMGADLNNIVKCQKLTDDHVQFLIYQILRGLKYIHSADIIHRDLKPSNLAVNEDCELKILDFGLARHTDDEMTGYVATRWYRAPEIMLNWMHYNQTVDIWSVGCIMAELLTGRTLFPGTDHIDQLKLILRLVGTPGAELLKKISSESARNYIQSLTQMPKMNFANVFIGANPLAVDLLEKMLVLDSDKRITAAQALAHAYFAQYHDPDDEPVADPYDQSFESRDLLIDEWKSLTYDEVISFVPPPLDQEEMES

Take `CNc1nc(-c2ccc3c(c2)CCC3)c(-c2cccnc2)s1` [13-74]: the melting point was 172 to 173 °C. The IC50 at human p38 MAP kinase amounted to 630 nM.

One may read the melting point as the temperature, or range, at which the solid turns liquid.
